The values that follow come from US20220211795A1 (Chenland Nutritionals Inc., priority 2021, published 2022).

In one data set the test system is glioma GL261 cells. Put plainly: Cytotoxicity experiment (CCK8). As to conditions: 1.172-150 μg/mL, 4 h drug then 20 h culture. Format: cell-based. Here is the method:
Gl261 cells in logarithmic growth phase are uniformly inoculated into sterile 96-well plates with 2×10^3 cells per well, and no cells are seeded around the plates, then 100 μL […] is added into each well and cultured under the condition of 37° C. and 5% CO2 for 24 h; remove the culture medium and add 100 μL of drug-containing medium (concentration gradient set at […], 75.000 μg/mL, 37.500 μg/mL, 18.750 μg/mL, 9.375 μg/mL, 4.688 μg/mL, 2.344 μg/mL, and 1.172 μg/mL), the drug-containing medium is removed after culture for 4 h, and 100 μL of medium is added to each well for further culture for 20 h. The culture medium is removed, and culture medium containing 10% CCK8 is added. After incubation for 1 h, the absorbance is measured with a microplate reader, and the cell viability is determined by the following formula […].

Data set [1] in a line: Potential detection (zeta potential). It counts as physicochemical.
Another data set in a line: Particle size detection. Format: physicochemical. From the text: 1.2 Particle Size Detection

Regarding `COc1cc(/C=C/C(=O)CC(=O)/C=C/c2ccc(O)c(OC)c2)ccc1O` [Free Curcumin, Curcumin], the “toxicity to GL261 cells” value in the data set on glioma GL261 cells was “no obvious toxicity”. This compound yielded an Average zeta potential in data set [1] of −36.5 mv. Moreover, the PDI in the data set “Particle size detection” came out at 0.545. The compound also came in with a Hydrodynamic diameter in “Particle size detection” (0.0309 g curcumin+10 ml water suspension) of 4.053 μm.
